The test system of data set [1] is cells. Put plainly: Transduction of cells with protransduzin B (vectors preincubated with peptide fibrils). The format is cell-based. The note with it: protransduzin B 25 μg/ml added to vectors, cells incubated 2 days. Here is the method: Dissolve 0.5 mg of protransduzin B in 50 μl of DMSO. Then add 450 μl of PBS to the solution, fibrils forming within 3 min. Add this stock solution (1 mg/ml) to the vectors to obtain a concentration of protransduzin B of 25 μg/ml. Vortex the solution for 1 min, then centrifuge with 5000 g for 5 min. The supernatant is discarded, and the pellet is suspended in a little PBS and added to the cells. The cells are incubated in an incubator for 2 days.

The nature of data set [2]: Storage stability in aqueous solution followed by HPLC (FIG. 1). The class given is physicochemical. The note with it: storage at 4° C. for 13 days, in vitro. Here is the method:
FIG. 1 is a high pressure liquid chromatography (HPLC) chromatogram of protransduzin A and protransduzin B.
In the left column of FIG. 1 (HPLC chromatogram), results for protransduzin A upon storage for 0-13 days at −20° C. and at 4° C. (13 days) are compared with the results for protransduzin B under the same conditions.

Non-standard residues stand in square brackets, D forms with d. Residues, ends and D or L forms follow the SMILES beside them. pGlu = O=C1CC[C@@H](C(=O)O)N1

For `CC[C@H](C)[C@H](NC(=O)[C@H](CCCCN)NC(=O)[C@H](CS)NC(=O)[C@@H]1CCC(=O)N1)C(=O)N[C@@H](CCCCN)C(=O)N[C@@H](CCC(N)=O)C(=O)N[C@H](C(=O)N[C@H](C(=O)N[C@@H](CC(N)=O)C(=O)N[C@@H](CCSC)C(=O)N[C@@H](Cc1c[nH]c2ccccc12)C(=O)N[C@@H](CCC(N)=O)C(=O)O)[C@@H](C)CC)[C@@H](C)CC` [protransduzin B] ([pGlu]CKIKQIINMWQ-OH), in data set [1], the cells transduced entry is on record as “Up to 96%” and the transduction rate entry is given as “significantly enhanced”. The “degradation upon storage (HPLC peak height)” value in data set [2] is “hardly degraded at all”.
